Results as given in PubChem BioAssay (NCI).
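Dose response: 5 concentrations. Exposure: 48 h. Format: 96-well plates. Endpoint: linear interpolation; highest concentration if not reached. GI50 = concentration required for 50% inhibition of growth. Definition used: TGI = concentration required for complete inhibition of growth.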

What was measured:
Assay in all cases: NCI anticancer screen, dose series, 48 h
A498 renal = tested on: A498 renal
ACHN renal = tested on: ACHN renal
BT-549 breast = tested on: BT-549 breast
CAKI-1 renal = tested on: CAKI-1 renal
CCRF-CEM leukemia = tested on: CCRF-CEM leukemia
COLO 205 colon = tested on: COLO 205 colon
DU-145 prostate = tested on: DU-145 prostate
EKVX NSCLC = tested on: EKVX NSCLC
HCC-2998 colon = tested on: HCC-2998 colon
HCT-116 colon = tested on: HCT-116 colon
HCT-15 colon = tested on: HCT-15 colon
HL-60(TB) leukemia = tested on: HL-60(TB) leukemia
HOP-62 NSCLC = tested on: HOP-62 NSCLC
HOP-92 NSCLC = tested on: HOP-92 NSCLC
HS 578T breast = tested on: HS 578T breast
HT29 colon = tested on: HT29 colon
IGROV1 ovarian = tested on: IGROV1 ovarian
K-562 leukemia = tested on: K-562 leukemia
KM12 colon = tested on: KM12 colon
LOX IMVI melanoma = tested on: LOX IMVI melanoma
M14 melanoma = tested on: M14 melanoma
MALME-3M melanoma = tested on: MALME-3M melanoma
MCF7 breast = tested on: MCF7 breast
MDA-MB-435 = tested on: MDA-MB-435
MOLT-4 leukemia = tested on: MOLT-4 leukemia
NCI-H226 lung = tested on: NCI-H226 lung
NCI-H23 lung = tested on: NCI-H23 lung
NCI-H460 lung = tested on: NCI-H460 lung
NCI/ADR-RES ovarian = tested on: NCI/ADR-RES ovarian
OVCAR-3 ovarian = tested on: OVCAR-3 ovarian
OVCAR-4 ovarian = tested on: OVCAR-4 ovarian
OVCAR-5 ovarian = tested on: OVCAR-5 ovarian
OVCAR-8 ovarian = tested on: OVCAR-8 ovarian
PC-3 prostate = tested on: PC-3 prostate
RPMI-8226 leukemia = tested on: RPMI-8226 leukemia
RXF 393 renal = tested on: RXF 393 renal
SF-268 CNS = tested on: SF-268 CNS
SF-295 CNS = tested on: SF-295 CNS
SK-MEL-2 melanoma = tested on: SK-MEL-2 melanoma
SK-MEL-28 melanoma = tested on: SK-MEL-28 melanoma
SK-MEL-5 melanoma = tested on: SK-MEL-5 melanoma
SK-OV-3 ovarian = tested on: SK-OV-3 ovarian
SN12C renal = tested on: SN12C renal
SNB-19 CNS = tested on: SNB-19 CNS
SNB-75 CNS = tested on: SNB-75 CNS
SR leukemia = tested on: SR leukemia
SW-620 colon = tested on: SW-620 colon
T-47D breast = tested on: T-47D breast
TK-10 renal = tested on: TK-10 renal
U251 CNS = tested on: U251 CNS
UACC-62 melanoma = tested on: UACC-62 melanoma
UO-31 renal = tested on: UO-31 renal
786-0 renal = tested on: 786-0 renal
A549 NSCLC = tested on: A549 NSCLC
MDA-MB-231 breast = tested on: MDA-MB-231 breast
NCI-H522 lung = tested on: NCI-H522 lung
SF-539 CNS = tested on: SF-539 CNS
UACC-257 melanoma = tested on: UACC-257 melanoma

SMILES: Cc1[nH]c(=O)[nH]c(=S)c1C(=O)Nc1cccc2cc3ccccc3cc12
- TGI (A498 renal): > 100000 nM
- TGI (ACHN renal): > 100000 nM
- TGI (BT-549 breast): > 100000 nM
- TGI (CAKI-1 renal): > 100000 nM
- TGI (CCRF-CEM leukemia): > 100000 nM
- TGI (COLO 205 colon): > 100000 nM
- TGI (DU-145 prostate): > 100000 nM
- TGI (EKVX NSCLC): > 100000 nM
- TGI (HCC-2998 colon): > 100000 nM
- TGI (HCT-116 colon): > 100000 nM
- TGI (HCT-15 colon): > 100000 nM
- TGI (HL-60(TB) leukemia): > 100000 nM
- TGI (HOP-62 NSCLC): > 100000 nM
- TGI (HOP-92 NSCLC): > 100000 nM
- TGI (HS 578T breast): > 100000 nM
- TGI (HT29 colon): > 100000 nM
- TGI (IGROV1 ovarian): > 100000 nM
- TGI (K-562 leukemia): > 100000 nM
- TGI (KM12 colon): > 100000 nM
- TGI (LOX IMVI melanoma): > 100000 nM
- TGI (M14 melanoma): > 100000 nM
- TGI (MALME-3M melanoma): > 100000 nM
- TGI (MCF7 breast): > 100000 nM
- TGI (MDA-MB-435): > 100000 nM
- TGI (MOLT-4 leukemia): > 100000 nM
- TGI (NCI-H226 lung): > 100000 nM
- TGI (NCI-H23 lung): > 100000 nM
- TGI (NCI-H460 lung): > 100000 nM
- TGI (NCI/ADR-RES ovarian): > 100000 nM
- TGI (OVCAR-3 ovarian): > 100000 nM
- TGI (OVCAR-4 ovarian): > 100000 nM
- TGI (OVCAR-5 ovarian): > 100000 nM
- TGI (OVCAR-8 ovarian): > 100000 nM
- TGI (PC-3 prostate): > 100000 nM
- TGI (RPMI-8226 leukemia): > 100000 nM
- TGI (RXF 393 renal): > 100000 nM
- TGI (SF-268 CNS): > 100000 nM
- TGI (SF-295 CNS): > 100000 nM
- TGI (SK-MEL-2 melanoma): > 100000 nM
- TGI (SK-MEL-28 melanoma): > 100000 nM
- TGI (SK-MEL-5 melanoma): > 100000 nM
- TGI (SK-OV-3 ovarian): > 100000 nM
- TGI (SN12C renal): > 100000 nM
- TGI (SNB-19 CNS): > 100000 nM
- TGI (SNB-75 CNS): > 100000 nM
- TGI (SR leukemia): > 100000 nM
- TGI (SW-620 colon): > 100000 nM
- TGI (T-47D breast): > 100000 nM
- TGI (TK-10 renal): > 100000 nM
- TGI (U251 CNS): > 100000 nM
- TGI (UACC-62 melanoma): > 100000 nM
- TGI (UO-31 renal): > 100000 nM

SMILES: O=C(NCCCCCCCNC(=O)OCc1ccc2c(Cl)cc(Cl)c(O)c2n1)OCc1ccc2c(Cl)cc(Cl)c(O)c2n1
- GI50 (786-0 renal): 1400 nM
- TGI (786-0 renal): 2890 nM
- GI50 (A498 renal): 1480 nM
- TGI (A498 renal): 2890 nM
- GI50 (A549 NSCLC): 1850 nM
- TGI (A549 NSCLC): 3760 nM
- GI50 (ACHN renal): 260 nM
- TGI (ACHN renal): 698 nM
- GI50 (BT-549 breast): 359 nM
- TGI (BT-549 breast): 1420 nM
- GI50 (CAKI-1 renal): 378 nM
- TGI (CAKI-1 renal): 1550 nM
- GI50 (CCRF-CEM leukemia): 282 nM
- TGI (CCRF-CEM leukemia): 1320 nM
- GI50 (COLO 205 colon): 564 nM
- TGI (COLO 205 colon): 2000 nM
- GI50 (DU-145 prostate): 672 nM
- TGI (DU-145 prostate): 1990 nM
- GI50 (EKVX NSCLC): 1550 nM
- TGI (EKVX NSCLC): 3220 nM
- GI50 (HCC-2998 colon): 1650 nM
- TGI (HCC-2998 colon): 3140 nM
- GI50 (HCT-116 colon): 241 nM
- TGI (HCT-116 colon): 630 nM
- GI50 (HCT-15 colon): 221 nM
- TGI (HCT-15 colon): 542 nM
- GI50 (HL-60(TB) leukemia): 470 nM
- TGI (HL-60(TB) leukemia): 1970 nM
- GI50 (HOP-62 NSCLC): 1400 nM
- TGI (HOP-62 NSCLC): 3220 nM
- GI50 (HOP-92 NSCLC): 1070 nM
- TGI (HOP-92 NSCLC): 2710 nM
- GI50 (HS 578T breast): 1400 nM
- TGI (HS 578T breast): 5350 nM
- GI50 (HT29 colon): 538 nM
- TGI (HT29 colon): 2460 nM
- GI50 (IGROV1 ovarian): 561 nM
- TGI (IGROV1 ovarian): 1410 nM
- GI50 (K-562 leukemia): 319 nM
- TGI (K-562 leukemia): 4410 nM
- GI50 (KM12 colon): 1180 nM
- TGI (KM12 colon): 2870 nM
- GI50 (LOX IMVI melanoma): 187 nM
- TGI (LOX IMVI melanoma): 379 nM
- GI50 (M14 melanoma): 419 nM
- TGI (M14 melanoma): 1730 nM
- GI50 (MALME-3M melanoma): 1200 nM
- TGI (MALME-3M melanoma): 2530 nM
- GI50 (MDA-MB-231 breast): 1130 nM
- TGI (MDA-MB-231 breast): 2450 nM
- GI50 (MDA-MB-435): 297 nM
- TGI (MDA-MB-435): 931 nM
- GI50 (MOLT-4 leukemia): 367 nM
- TGI (MOLT-4 leukemia): 2000 nM
- GI50 (NCI-H226 lung): 557 nM
- TGI (NCI-H226 lung): 1590 nM
- GI50 (NCI-H23 lung): 1490 nM
- TGI (NCI-H23 lung): 3200 nM
- GI50 (NCI-H460 lung): 1400 nM
- TGI (NCI-H460 lung): 3510 nM
- GI50 (NCI-H522 lung): 303 nM
- TGI (NCI-H522 lung): 1150 nM
- GI50 (NCI/ADR-RES ovarian): 338 nM
- TGI (NCI/ADR-RES ovarian): 3590 nM
- GI50 (OVCAR-3 ovarian): 298 nM
- TGI (OVCAR-3 ovarian): 838 nM
- GI50 (OVCAR-4 ovarian): 465 nM
- TGI (OVCAR-4 ovarian): 1620 nM
- GI50 (OVCAR-5 ovarian): 1690 nM
- TGI (OVCAR-5 ovarian): 3320 nM
- GI50 (OVCAR-8 ovarian): 395 nM
- TGI (OVCAR-8 ovarian): 1830 nM
- GI50 (PC-3 prostate): 625 nM
- TGI (PC-3 prostate): 2160 nM
- GI50 (RPMI-8226 leukemia): 247 nM
- TGI (RPMI-8226 leukemia): 735 nM
- GI50 (RXF 393 renal): 812 nM
- TGI (RXF 393 renal): 2130 nM
- GI50 (SF-268 CNS): 1280 nM
- TGI (SF-268 CNS): 2780 nM
- GI50 (SF-295 CNS): 1730 nM
- TGI (SF-295 CNS): 3410 nM
- GI50 (SF-539 CNS): 414 nM
- TGI (SF-539 CNS): 1480 nM
- GI50 (SK-MEL-2 melanoma): 1330 nM
- TGI (SK-MEL-2 melanoma): 2780 nM
- GI50 (SK-MEL-28 melanoma): 1170 nM
- TGI (SK-MEL-28 melanoma): 2420 nM
- GI50 (SK-MEL-5 melanoma): 966 nM
- TGI (SK-MEL-5 melanoma): 2260 nM
- GI50 (SK-OV-3 ovarian): 3930 nM
- TGI (SK-OV-3 ovarian): 14000 nM
- GI50 (SN12C renal): 774 nM
- TGI (SN12C renal): 2170 nM
- GI50 (SNB-19 CNS): 1590 nM
- TGI (SNB-19 CNS): 3060 nM
- GI50 (SNB-75 CNS): 905 nM
- TGI (SNB-75 CNS): 2430 nM
- GI50 (SR leukemia): 267 nM
- TGI (SR leukemia): 1410 nM
- GI50 (SW-620 colon): 273 nM
- TGI (SW-620 colon): 744 nM
- GI50 (T-47D breast): 1330 nM
- TGI (T-47D breast): 3950 nM
- GI50 (TK-10 renal): 1400 nM
- TGI (TK-10 renal): 2730 nM
- GI50 (U251 CNS): 1600 nM
- TGI (U251 CNS): 3090 nM
- GI50 (UACC-257 melanoma): 1210 nM
- TGI (UACC-257 melanoma): 2600 nM
- GI50 (UACC-62 melanoma): 845 nM
- TGI (UACC-62 melanoma): 2130 nM
- GI50 (UO-31 renal): 321 nM
- TGI (UO-31 renal): 1290 nM
